One experiment relates to C57Bl/6J mice. Kind of experiment: Hyperinsulinemic-euglycemic clamp in CD and CD-NR mice. It counts as in vivo. The note with it: 4 weeks of treatment. The method, then: Hyperinsulinemic-euglycemic clamps were performed as described (Lagouge et al., 2006).
Another experiment concerns C. elegans. Kind of experiment: Worm lifespan analysis. The format is in vivo. The note with it: for variation compared to control (%): vs N2 + water. As for the experimental part: Worm Lifespan Analysis Lifespan tests were performed as described in Mouchiroud et al (L. Mouchiroud et al., Pyruvate imbalance mediates metabolic reprogramming and mimics lifespan extension by dietary restriction in Caenorhabditis elegans. Aging Cell 10, 39 (2011)). Briefly, 60-100 animals were used per conditions and scored every other day. All lifespan experiments were performed at 20° C. […] Animals were exposed to compounds during the full life from eggs until death. To ensure a permanent exposure to the compound, plates were changed twice a week. All the compounds used in this study were dissolved in a water stock solution.

The test system of a further experiment is HEK293T cells. Kind of experiment: Mitochondrial NAD+ in HEK293T cells. The following applies: 0.5 mM, 4 hrs. The format is cell-based, human. As for the experimental part:
NAD^+ NAM Determination. NAD^+ levels in cultured cells were determined using a commercial kit (Enzychrom™, BioAssays Systems, CA). For tissue samples NAD^+ and NAM levels were determined as described in (Sauve et al., 2005). In brief, to a weighed aliquot of frozen pulverized tissue we added as standards, ^18O-NAD^+ (typically 2.00 nmol) and ^18O-NAM (typically 2.00 nmol). 70 L of ice-cold 7% perchloric acid was then added and the sample was vortexed and sonicated three times, then centrifuged. Clear supernatant was removed and neutralized by additions of 3 M NaOH and 1 M phosphate buffer (pH=9), then centrifuged. Clear supernatant was injected onto HPLC C-18 column with 20 mM ammonium acetate eluent to separate NAD^+ and NAM from other cellular components, NAD^+ and NAM peaks (260 nm absorbance) were collected. Collections were lyophilized to dryness and subjected to MALDI-TOF analysis. For NAD^+ measurement, ratio of intensities for m/z=664 and 666 peaks, corresponding to ^16O- and ^18O-NAD^+ isotopomers, was multiplied by 2.00 nmol and then divided by tissue weight to determine NAD+ concentration in the sample. […] Other NAD metabolites were determined as previously described (Yang and Sauve, Synthesis of nictotinamide riboside and derivatives: effective agents for increasing nictinomide adenine dinucleotide concentrations in mammalian cells. J Med Chem 50, 6458-6461 (2006)).

In a further experiment the test system is C2C12 myotubes. Kind of experiment: NR uptake in C2C12 myotubes. The format is in vitro ADME.

Results on one compound are retold here after US10709724B2, “Methods of treating mitochondrial dysfunction” (Ecole Polytechnique Federale de Lausanne (EPFL), priority 2011, dated 2020).

“And” between values parts separate entries of the source, which are not always exact repeats. Identical values can stand only once. “Also recorded” adds a separate entry of the source.

A word on the Km: it is the concentration of substrate that gives half-maximal velocity. With `NC(=O)c1ccc[n+]([C@@H]2O[C@H](CO)[C@@H](O)[C@H]2O)c1` [NR, nicotinamide riboside], the “glucose infusion rate to maintain euglycemia, vs vehicle” value in the experiment with C57Bl/6J mice is reported as approximately 2 fold. The “insulin-induced muscle glucose uptake” value with C57Bl/6J mice is listed as “very marked increase”. The “mean lifespan ± SE” value was 21.1 ± 0.88 days in the experiment on C. elegans (N2, 200 nM); 23.5 ± 0.56 days and 24.9 ± 0.68 days and 20.6 ± 1.02 days in the experiment with C. elegans (N2, 500 nM); 20.0 ± 0.89 days in the experiment on C. elegans (N2, 1000 nM); 19.1 ± 0.51 days in the experiment on C. elegans (daf-16(mu86), 500 nM); 23.2 ± 0.61 days in the experiment on C. elegans (sir-2.1(ok434), 500 nM). The “variation compared to control (%)” value with C. elegans (N2, 200 nM) was “+17.9%”; with C. elegans (N2, 1000 nM) it was “+11.7%”; in the experiment with C. elegans (daf-16(mu86), 500 nM), −7.8%; in the experiment with C. elegans (sir-2.1(ok434), 500 nM) it was “+12.0%”. Moreover, the “lifespan in daf-16 mutant worms” value with C. elegans (daf-16(mu86) mutant worms) is “completely abolished; also recorded: daf-16-dependent”. Further, the “lifespan in sir-2.1(ok434) mutant / sir-2.1 dependence” value in the experiment with C. elegans (sir-2.1(ok434) mutant worms) is reported as “sir-2.1-dependent fashion; also recorded: sir-2-dependent manner”. For the same compound, in the experiment on C. elegans (wild type N2 worms), the lifespan result is “extended lifespan; also recorded: increases”. Besides, the “mitochondrial NAD+ levels in cultured cells” value in the experiment on HEK293T cells was “mitochondrial NAD^+ levels were enhanced”. For the same compound, the Km with C2C12 myotubes stood at 172 ± 17.6 µM. Moreover, the “Vmax of NR uptake” value with C2C12 myotubes is on record as 204.2±20.5 pmol/mg of protein/min.
